{"source": "patent US20130210034A1", "about": "“COMPLEX PHOSPHOPROTEIN ACTIVATION PROFILES” (BECKMAN COULTER, INC., priority 2005, published 2013)", "experiment_in_all_cases": "Cytokine-stimulated phosphorylation in immunophenotypically defined cell populations from healthy donor BM (flow cytometry);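 for pAKT S/N ratio: Phosphoprotein MFI normalized to lymphocyte MFI as internal negative control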;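 for pS6 S/N ratio: Phosphoprotein MFI normalized to lymphocyte MFI as internal negative control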;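 for pSTAT3 S/N ratio: Phosphoprotein MFI normalized to lymphocyte MFI as internal negative control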;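 for pSTAT5 S/N ratio: Phosphoprotein MFI normalized to lymphocyte MFI as internal negative control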", "assay_type_in_all_cases": "cell-based, human", "key": {"pS6": {"test_system": "pS6", "conditions": "healthy donor BM, mean ± SD", "protocol": "(§1) Bone marrow (BM) samples were collected in 7.5 mL Iscove's modified Dulbecco's medium (IMDM) supplemented with 100U penicillin, 0.01 mg/mL streptomycin, and 70 μg/mL heparin sodium salt from 10 patients undergoing hip replacement surgery, who were otherwise healthy. These patients were from a pool of surgery patients, age 49 to 77, and represented […] patients. […] These BM samples were rinsed twice with IMDM to release cells, filtered using a 100 μm Nylon cell strainer to remove marrow particles, and centrifuged for at RT fro 7 minutes at 200 g. The cell pellet was washed twice with sterile IMDM to remove traces of fat and re-suspended in IMDM to a concentration of 3×10^7 cells/mL.\n(§2) To assess the signal transduction response after growth factor simulation, a series comprising two sets of tubes including about 3×10^6 cells/100 μL were incubated at 37° C. for 30 minutes. After this pre-incubation period, tubes with then processes with either a stimulant or inhibitor. […] To examine the effects of protein phosphorylation inhibition, tubes were incubated with an inhibitor cocktail comprising 100 μM/100 μL UO126, 1 μM/100 μL LY294002, and 1 μM/100 μL rapamycin. One unstimulated tube receiving no stimulant or inhibitor was processed to assess basal levels of phospho-protein expression. After stimulation the cells were immediately fixed in 10% formaldehyde solution at 37° C. Pre-labeling with CD13, CD16 and CD64 antibodies was carried out 20 minutes prior to formaldehyde fixation. After fixation, one set of tubes was permeabilized without methanol for pAKT, pERK and pS6 staining and the other for 80% methanol permeabilized for pSTAT3 and pSTAT5 staining. After permeablization, the cells were washed in PBS with 2% BSA and blocked by re-suspended in 75 μL of PBS comprising 25% heat inactivated normal mouse serum, 25% normal rabbit serum. To stain cells with fluorescent conjugated monoclonal antibodies, samples were incubated on ice for 45 minutes in 100 μL of an antibody staining solution including either: 1) CD15-Pacific Orange, CD34-Phycoerythrin-Texas Red, CD117-Phycoerythrin-Cyanin 5.5, CD45-Allophycocyanin-Alexa Fluor 750 (or CD45-Pacific Orange, in which case CD15-Pacific Orange was omitted), pS6-Pacific Blue, pERK-Alexa Fluor 488 and pAKT-Alexa Fluor 647 or 2) CD15-Pacific Orange, CD34-Phycoerythrin-Texas Red, CD117-Phycoerythrin-Cyanin 5.5, CD45-Allophycocyanin-Alexa Fluor 750 or CD45-Pacific Blue, pSTAT3-Alexa Fluor 488 and pSTAT5-Phycoerythrin. The stained cells were washed twice with ice cold PBS containing 2% BSA and centrifuged at 800 g for 6 minutes at 4° C. The supernatant was discarded and cells re-suspended in 250 μL of chilled wash buffer for data acquisition. Stained cells were examined using either GALIOS flow cytometer (Beckman Coulter) or CYAN ADP (Beckman Coulter) equipped with 488 nm, 405 nm and 635 nm lasers to detect the degree of fluorescence. Data were analyzed using FCS Express (De Novo Software, CA) analysis software.\n(§3) Specific phosphoprotein expression of pERK, pS6, pAKT, pSTAT5, and pSTAT3 was examined in seven discrete phenotypically defined populations based on 7-color immunophenotyping (FIG. 1). The percent of responding (phosphorprotein positive) cells for each of these populations was determined from individual single parameter histograms based on a fixed integration region set on the inhibitor treated control at about 3% positives."}, "pSTAT5": {"test_system": "pSTAT5", "conditions": "for pSTAT5 Percent (%) Responding Cells, Mean / pSTAT5 S/N ratio: healthy donor BM, mean ± SD", "protocol": "as §1, §2, §3"}, "pAKT": {"test_system": "pAKT", "conditions": "for pAKT Percent (%) Responding Cells, Mean / pAKT S/N ratio: healthy donor BM, mean ± SD", "protocol": "as §1, §2, §3"}, "pSTAT3": {"test_system": "pSTAT3", "conditions": "healthy donor BM, mean ± SD", "protocol": "as §1, §2, §3"}, "pERK": {"test_system": "pERK", "conditions": "healthy donor BM, mean ± SD", "protocol": "as §1, §2, §3"}}, "note": "“And” between values parts separate entries of the source, which are not always exact repeats. Equal values may be shown once."}
{"substance": "Granulocyte-Macrophage Colony-Stimulating Factor [GM-CSF]", "values": [{"measurement": "pS6 Percent (%) Responding Cells, Mean", "setting": "pS6; CD34^+ (CD34^+/CD117^+ cells)", "value": "60.1% and 60.1 ± 14.1%"}, {"measurement": "pS6 S/N ratio", "setting": "pS6; CD34^+ (CD34^+/CD117^+ cells)", "value": "35.7 ± 31.7"}, {"measurement": "pS6 Percent (%) Responding Cells, Mean", "setting": "pS6; CD117^+ (CD34^−/CD117^+ cells)", "value": "38.5 ± 11.5", "unit": "%"}, {"measurement": "pS6 S/N ratio", "setting": "pS6; CD117^+ (CD34^−/CD117^+ cells)", "value": "52.7 ± 44.0"}, {"measurement": "pS6 Percent (%) Responding Cells, Mean", "setting": "pS6; G1, immature myeloid cells", "value": "3.4 ± 1.3", "unit": "%"}, {"measurement": "pS6 S/N ratio", "setting": "pS6; G1, immature myeloid cells", "value": "5.1 ± 3.2"}, {"measurement": "pS6 Percent (%) Responding Cells, Mean", "setting": "pS6; G2, intermediate myeloid cells", "value": "11.3 ± 15.9", "unit": "%"}, {"measurement": "pS6 S/N ratio", "setting": "pS6; G2, intermediate myeloid cells", "value": "5.7 ± 3.7"}, {"measurement": "pS6 Percent (%) Responding Cells, Mean", "setting": "pS6; G3, mature myeloid cells", "value": "8.3 ± 7.0", "unit": "%"}, {"measurement": "pS6 S/N ratio", "setting": "pS6; G3, mature myeloid cells", "value": "5.7 ± 3.6"}, {"measurement": "pS6 Percent (%) Responding Cells, Mean", "setting": "pS6; Mono, monocytes", "value": "76.9 ± 11.8", "unit": "%"}, {"measurement": "pS6 S/N ratio", "setting": "pS6; Mono, monocytes", "value": "25.8 ± 20.8"}, {"measurement": "pSTAT5 Percent (%) Responding Cells, Mean", "setting": "pSTAT5; CD34^+ (CD34^+/CD117^+ cells)", "value": 74.7, "unit": "%"}, {"measurement": "pSTAT5 S/N ratio", "setting": "pSTAT5; CD34^+ (CD34^+/CD117^+ cells)", "value": "19.8 ± 9.7"}, {"measurement": "pSTAT5 Percent (%) Responding Cells, Mean", "setting": "pSTAT5; CD117^+ (CD34^−/CD117^+ cells)", "value": "58.2 ± 11.8", "unit": "%"}, {"measurement": "pSTAT5 Percent (%) Responding Cells, Mean", "setting": "pSTAT5; G2, intermediate myeloid cells", "value": "98.8 ± 0.4", "unit": "%"}, {"measurement": "pSTAT5 S/N ratio", "setting": "pSTAT5; G2, intermediate myeloid cells", "value": "18.3 ± 5.5"}, {"measurement": "pSTAT5 S/N ratio", "setting": "pSTAT5; Mono, monocytes", "value": "14.7 ± 4.5"}, {"measurement": "pSTAT5, Normal Sample", "setting": "pSTAT5; Table 7 comparison value, matches percent responding CD34^+ cells of Tables 1-5", "value": "74.7 and 75.1"}, {"measurement": "pAKT Percent (%) Responding Cells, Mean", "setting": "pAKT; CD34^+ (CD34^+/CD117^+ cells)", "value": "22.5 ± 23.4", "unit": "%"}, {"measurement": "pAKT S/N ratio", "setting": "pAKT; CD34^+ (CD34^+/CD117^+ cells)", "value": "3.2 ± 3.3"}, {"measurement": "pAKT Percent (%) Responding Cells, Mean", "setting": "pAKT; CD117^+ (CD34^−/CD117^+ cells)", "value": "13.3 ± 23.7", "unit": "%"}, {"measurement": "pAKT S/N ratio", "setting": "pAKT; CD117^+ (CD34^−/CD117^+ cells)", "value": "2.2 ± 1.3"}, {"measurement": "pAKT Percent (%) Responding Cells, Mean", "setting": "pAKT; G1, immature myeloid cells", "value": "11.2 ± 19.8", "unit": "%"}, {"measurement": "pAKT S/N ratio", "setting": "pAKT; G1, immature myeloid cells", "value": "3.0 ± 1.6"}, {"measurement": "pAKT Percent (%) Responding Cells, Mean", "setting": "pAKT; G2, intermediate myeloid cells", "value": "17.6 ± 26.1", "unit": "%"}, {"measurement": "pAKT S/N ratio", "setting": "pAKT; G2, intermediate myeloid cells", "value": "3.2 ± 1.6"}, {"measurement": "pAKT Percent (%) Responding Cells, Mean", "setting": "pAKT; G3, mature myeloid cells", "value": "17.5 ± 26.0", "unit": "%"}, {"measurement": "pAKT S/N ratio", "setting": "pAKT; G3, mature myeloid cells", "value": "3.7 ± 1.9"}, {"measurement": "pAKT Percent (%) Responding Cells, Mean", "setting": "pAKT; Mono, monocytes", "value": "17.6 ± 27.3", "unit": "%"}, {"measurement": "pAKT S/N ratio", "setting": "pAKT; Mono, monocytes", "value": "3.6 ± 2.3"}, {"measurement": "pAKT, Normal Sample", "setting": "pAKT; Table 7 comparison value", "value": 16.2}, {"measurement": "pSTAT3 Percent (%) Responding Cells, Mean", "setting": "pSTAT3; CD34^+ (CD34^+/CD117^+ cells)", "value": "10.4 ± 7.9", "unit": "%"}, {"measurement": "pSTAT3 S/N ratio", "setting": "pSTAT3; CD34^+ (CD34^+/CD117^+ cells)", "value": "1.7 ± 0.2"}, {"measurement": "pSTAT3 Percent (%) Responding Cells, Mean", "setting": "pSTAT3; CD117^+ (CD34^−/CD117^+ cells)", "value": "7.9 ± 8.7", "unit": "%"}, {"measurement": "pSTAT3 S/N ratio", "setting": "pSTAT3; CD117^+ (CD34^−/CD117^+ cells)", "value": "2.6 ± 0.8"}, {"measurement": "pSTAT3 Percent (%) Responding Cells, Mean", "setting": "pSTAT3; G1, immature myeloid cells", "value": "58.7% and 58.7 ± 39.9%"}, {"measurement": "pSTAT3 S/N ratio", "setting": "pSTAT3; G1, immature myeloid cells", "value": "6.8 ± 2.5"}, {"measurement": "pSTAT3 Percent (%) Responding Cells, Mean", "setting": "pSTAT3; G2, intermediate myeloid cells", "value": "59.1 ± 30.4", "unit": "%"}, {"measurement": "pSTAT3 S/N ratio", "setting": "pSTAT3; G2, intermediate myeloid cells", "value": "7.3 ± 2.1"}, {"measurement": "pSTAT3 Percent (%) Responding Cells, Mean", "setting": "pSTAT3; G3, mature myeloid cells", "value": "76.0 ± 30.8", "unit": "%"}, {"measurement": "pSTAT3 S/N ratio", "setting": "pSTAT3; G3, mature myeloid cells", "value": "8.8 ± 2.7"}, {"measurement": "pSTAT3 S/N ratio", "setting": "pSTAT3; Mono, monocytes", "value": "2.3 ± 0.3"}, {"measurement": "pERK Percent (%) Responding Cells, Mean", "setting": "pERK; CD34^+ (CD34^+/CD117^+ cells)", "value": "30.1% and 30.1 ± 11.5%"}, {"measurement": "pERK S/N ratio", "setting": "pERK; CD34^+ (CD34^+/CD117^+ cells)", "value": "10.6 ± 4.4"}, {"measurement": "pERK S/N ratio", "setting": "pERK; CD117^+ (CD34^−/CD117^+ cells)", "value": "3.8 ± 0.4"}, {"measurement": "pERK Percent (%) Responding Cells, Mean", "setting": "pERK; G1, immature myeloid cells", "value": "53.9% and 53.9 ± 20.8%"}, {"measurement": "pERK S/N ratio", "setting": "pERK; G1, immature myeloid cells", "value": "6.2 ± 1.8"}, {"measurement": "pERK Percent (%) Responding Cells, Mean", "setting": "pERK; G2, intermediate myeloid cells", "value": "91.5 ± 16.0", "unit": "%"}, {"measurement": "pERK S/N ratio", "setting": "pERK; G2, intermediate myeloid cells", "value": "9.4 ± 2.4"}, {"measurement": "pERK Percent (%) Responding Cells, Mean", "setting": "pERK; G3, mature myeloid cells", "value": "91.5% and 90.7 ± 15.0%"}, {"measurement": "pERK S/N ratio", "setting": "pERK; G3, mature myeloid cells", "value": "11.3 ± 3.1"}, {"measurement": "pERK Percent (%) Responding Cells, Mean", "setting": "pERK; Mono, monocytes", "value": "52.0 ± 22.6", "unit": "%"}, {"measurement": "pERK S/N ratio", "setting": "pERK; Mono, monocytes", "value": "11.4 ± 4.5"}]}
